# Assay results from paper PMC11887843 (Science Advances, 2024).
# pKd: −log10 of the molar value. Like-named read-outs stand apart in the source and are kept apart here.
# Experiments:
# caspase-11 [1] = target: T1, caspase-11 (Mus musculus, UniProt P70343); assay: microscale thermophoresis; format: binding
# T1 sequence (P70343 1-80 limits assumed): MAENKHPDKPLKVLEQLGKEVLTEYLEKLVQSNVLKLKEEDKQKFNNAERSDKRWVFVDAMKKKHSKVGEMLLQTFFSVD
# [2] = target: T2, AcCARD (uncharacterized CARD-containing protein) (Amphilophus citrinellus, UniProt A0A3Q0SFM2); assay: limited trypsin digestion and blue native PAGE in […] lysates; format: cell-based
# T2 sequence (A0A3Q0SFM2 1-92): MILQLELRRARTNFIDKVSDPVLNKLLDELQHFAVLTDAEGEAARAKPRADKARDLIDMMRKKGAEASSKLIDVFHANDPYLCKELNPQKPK
# caspase-11 [3] = target: T1, caspase-11; assay: microscale thermophoresis; format: binding; remark: listed apart in the source
pKd (caspase-11 [3]),SMILES,pKd (caspase-11 [1]),limited trypsin digestion and blue native PAGE in 293T lysates [2]
–,"CCCCCCCCCCCCCCCC(=O)OC[C@@H](O)COP(=O)([O-])OCC[N+](C)(C)C [16:0 LysoPC, 1-palmitoyl-2-hydroxy-sn-glycero-3-phosphocholine]",~5.00,–
~4.82,CCCCCCCCCCCCCCCC(=O)OC[C@H](COP(=O)([O-])OCC[N+](C)(C)C)OC(=O)CCCC(=O)O [PGPC],–,we found that AcCARD binds PGPC in both native PAGE and limited trypsin digestion assays
